The record followed here is patent publication US20260035384A1, “COMPOUND CONTAINING CYCLOHEXYL” (CHIA TAI TIANQING PHARMACEUTICAL GROUP CO., LTD., priority 2022, published 2026).

The target of one test is T1, AR in VCaP cells (Homo sapiens, UniProt P10275).
T1 construct: Assay on Degradation Activity for AR in VCaP Cells; endogenous in cells; host or cells: VCaP cells
T1 sequence (P10275 1-920): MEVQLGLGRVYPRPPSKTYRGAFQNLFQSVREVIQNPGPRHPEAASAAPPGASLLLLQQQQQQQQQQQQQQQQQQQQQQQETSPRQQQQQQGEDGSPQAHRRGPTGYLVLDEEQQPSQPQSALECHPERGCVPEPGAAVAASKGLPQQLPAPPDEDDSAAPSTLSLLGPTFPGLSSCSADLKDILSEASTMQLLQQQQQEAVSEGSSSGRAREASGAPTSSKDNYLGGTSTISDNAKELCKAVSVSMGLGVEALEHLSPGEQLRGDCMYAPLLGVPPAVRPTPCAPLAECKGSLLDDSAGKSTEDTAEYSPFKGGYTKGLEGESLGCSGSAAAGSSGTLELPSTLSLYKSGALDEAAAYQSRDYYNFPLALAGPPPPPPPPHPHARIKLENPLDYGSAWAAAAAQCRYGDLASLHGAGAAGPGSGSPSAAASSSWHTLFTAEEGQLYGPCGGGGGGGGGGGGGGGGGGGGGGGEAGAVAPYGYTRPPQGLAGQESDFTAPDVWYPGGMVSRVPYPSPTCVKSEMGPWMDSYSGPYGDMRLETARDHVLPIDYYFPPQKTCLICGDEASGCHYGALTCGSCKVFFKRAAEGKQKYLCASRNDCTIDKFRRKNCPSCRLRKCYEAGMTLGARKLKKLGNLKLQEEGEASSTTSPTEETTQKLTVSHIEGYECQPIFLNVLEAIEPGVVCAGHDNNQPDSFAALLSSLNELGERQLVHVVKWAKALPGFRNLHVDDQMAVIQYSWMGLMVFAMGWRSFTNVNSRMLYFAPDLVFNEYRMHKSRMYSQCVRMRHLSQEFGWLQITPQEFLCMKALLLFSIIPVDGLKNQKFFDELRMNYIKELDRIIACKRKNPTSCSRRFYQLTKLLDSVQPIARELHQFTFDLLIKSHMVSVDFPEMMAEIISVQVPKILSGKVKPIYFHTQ
The test is described as follows: Assay on degradation activity for AR in VCaP cells (HTRF human androgen receptor detection kit). Type of test: cell-based. To be noted: 24 h incubation. The procedure, abridged: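 VCaP cells seeded overnight in 2% CSS-FBS phenol red-free DMEM, then treated 24 h with compound at 1000 nM–0.977 nM final, in duplicate. Lysates probed with AR Eu cryptate/d2 antibody HTRF (2 h, 25° C., 665/620 nm); DC50 and Dmax from four-parameter dose-response fits.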
On the technique in general: In TR-FRET formats the signal depends on donor and acceptor labels being close together.

The next test has as its system VCaP cells. Description: Assay on inhibitory activity for VCaP cell proliferation (CCK-8). The test is classed as cell-based. The conditions noted are these: Homo sapiens, 168 h incubation. The procedure, abridged: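 VCaP cells seeded at 1×10^5 cells/mL in phenol red-free DMEM with 5% charcoal-stripped FBS, treated in duplicate at 10000–0.61 nM final. After 168 h incubation, viability was read with CCK-8.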

Usually DC50 stands for the concentration giving 50% degradation. A higher DC50 goes with a less potent degrader. For orientation: IC50 means the concentration needed to halve the response being measured. `N#Cc1ccc(O[C@H]2CC[C@H](NC(=O)c3ccc(C4CCN(C5CN(c6cc7onc(C8CCC(=O)NC8=O)c7c7ccccc67)C5)CC4)nn3)CC2)cc1Cl` (some centres unmarked) [Compound 48] came in with a DC50 at AR in VCaP cells of at most 1 nM. Further, the IC50 in the test on VCaP cells was below 100 nM.
